The text below walks through data of patent US6054450A, “Hair-care cosmetic compositions having dandruff formation-suppressing effect” (Pacific Corporation, priority 1997, dated 2000).

For series [1] the following is noted: cited from earlier work.
For series [2] the following is noted: cited from earlier work; for Acute Oral LD50: rats.
Series [3] can be described thus: Solubility. Type of series: physicochemical.
Series [4] deals with Pityrosporum ovlae. In words: Antibacterial activity against Pityrosporum ovlae (general statement). Type of series: cell-based.
Series [5] is described as follows: Stability of iodopropynyl butylcarbamate to temperature and pH. The following applies: 70~80° C. and pH 4~10.

Molecules are shown by their SMILES.

`[O-]n1ccccc1=S.[O-]n1ccccc1=S.[Zn+2]` [zinc pyrithione, zinc salt of 1-hydroxy-2(1H) pyridinethione]: the solubility in ethanol in series [1] (ethanol) is reported as 310 ppm. For the same compound, the “solubility in water at 25° C.” value in series [1] (water, 25° C.) is reported as “about 15 ppm”. Further, in series [1] (water, ethanol and most common organic solvents such as ethylene glycol, diethyl ether and isopropanol), the “solubility” value is “substantially insoluble”. Besides, the “Acute Oral LD50” value in series [2] is 354 mg/kg.

Consider `CCCCNC(=O)OCC#CI` [iodopropynyl butylcarbamate], for which, in series [3] (alcohols or glycol derivatives), the “solubility in alcohols or glycol derivatives” value is reported as “high solubility”. Moreover, the “solubility in ionic or non-ionic surfactants” value in series [3] (ionic or non-ionic surfactants) is given as “good solubility”. Also, the “solubility in water” value in series [3] (water) is “low solubility”. In series [4], the “MIC” value is listed as “very low” and the “antibacterial action” value is recorded as “very strong”. Also, the “safety and toxicity compared with zinc pyrithione” value in series [2] (compared with zinc pyrithione) is “very advantageous over zinc pyrithione”. Moreover, in series [2], the “Acute Oral LD50” value is 1470 mg/kg. For the same compound, in series [5], the “stability” value is “very stable”.
